In ChEMBL document CHEMBL3351318, “Synthesis of novel 4-nitropyrrole-based semicarbazide and thiosemicarbazide hybrids with antimicrobial and anti-tubercular activity” (Bioorg Med Chem Lett, 2014):
Converted amounts (≈) assume the structure as drawn.

How the values were obtained:
Candida albicans [1] = test: Antimicrobial activity against Candida albicans after 48 hrs by agar dilution method; format: functional
Vero = test: Cytotoxicity against African green monkey Vero cells assessed as reduction in cell viability after 72 hrs by MTT assay; format: cell-based; settings: Chlorocebus sabaeus
Staphylococcus aureus [2] = test: Antimicrobial activity against methicillin-resistant Staphylococcus aureus ATCC 43866 after 48 hrs by broth dilution technique; format: functional; settings: ATCC 43866, 48 h
[3] = tested on: Mycobacterium tuberculosis; test: Antitubercular activity against Mycobacterium tuberculosis H37Rv after 7 days by Resazurin micro titer assay; format: functional; settings: 168 h
Candida albicans [4] = test: Ratio of Amphotericin B MIC to compound MIC for Candida albicans after 48 hrs by broth dilution technique; format: functional
Staphylococcus aureus [5] = test: Antimicrobial activity against methicillin-sensitive Staphylococcus aureus ATCC 35556 after 48 hrs by broth dilution technique; format: functional; settings: ATCC 35556, 48 h
Klebsiella pneumoniae = test: Antimicrobial activity against Klebsiella pneumoniae after 48 hrs by broth dilution technique; format: functional
Escherichia coli [6] = test: Antimicrobial activity against Escherichia coli ATCC 25922 after 48 hrs by broth dilution technique; format: functional; settings: ATCC 25922, 48 h
Escherichia coli [7] = test: Ratio of ciprofloxacin MIC to compound MIC for Escherichia coli ATCC 25922 after 48 hrs by broth dilution technique; format: functional

| Compound | MIC (Candida albicans [1]) | IC50 (Vero) | MIC (Staphylococcus aureus [2]) | MIC [3] | Ratio (Candida albicans [4]) | MIC (Staphylococcus aureus [5]) | MIC (Klebsiella pneumoniae) | MIC (Escherichia coli [6]) | Ratio (Escherichia coli [7]) |
| --- | --- | --- | --- | --- | --- | --- | --- | --- | --- |
| Cn1cc([N+](=O)[O-])cc1C(=O)NNC(=O)NCCc1ccccc1 | 1.56 mg/L (≈ 4.71 µM) | 633 µM | 3.12 mg/L (≈ 9.43 µM) | 42.1 mg/L (≈ 127 µM) | 2 | 1.56 mg/L (≈ 4.71 µM) | 6.25 mg/L (≈ 18.9 µM) | 3.12 mg/L (≈ 9.43 µM) |  |
| Cn1cc([N+](=O)[O-])cc1C(=O)NNC(=O)NCc1ccco1 | 1.56 mg/L (≈ 5.08 µM) | 482 µM | 3.12 mg/L (≈ 10.2 µM) | 17 mg/L (≈ 55.3 µM) | 2 | 1.56 mg/L (≈ 5.08 µM) | 3.12 mg/L (≈ 10.2 µM) | 1.56 mg/L (≈ 5.08 µM) |  |
| Cn1cc([N+](=O)[O-])cc1C(=O)NNC(=O)NC1CCCC1 | 1.56 mg/L (≈ 5.28 µM) | 271 µM | 3.12 mg/L (≈ 10.6 µM) | 38.7 mg/L (≈ 131 µM) | 2 | 1.56 mg/L (≈ 5.28 µM) | 3.12 mg/L (≈ 10.6 µM) | 1.56 mg/L (≈ 5.28 µM) |  |
| O=C(NNC(=S)Nc1ccc([N+](=O)[O-])cc1)c1cc([N+](=O)[O-])c[nH]1 | 3.12 mg/L (≈ 8.92 µM) | 529 µM | 3.12 mg/L (≈ 8.92 µM) | 0.5 mg/L (≈ 1.43 µM) | 4 | 1.56 mg/L (≈ 4.45 µM) | 3.12 mg/L (≈ 8.92 µM) | 1.56 mg/L (≈ 4.45 µM) |  |
| COc1ccc(NC(=S)NNC(=O)c2cc([N+](=O)[O-])c[nH]2)cc1 | 3.12 mg/L (≈ 9.32 µM) | 331 µM | 3.12 mg/L (≈ 9.32 µM) | 1.3 mg/L (≈ 3.88 µM) | 4 | 1.56 mg/L (≈ 4.65 µM) | 3.12 mg/L (≈ 9.32 µM) | 1.56 mg/L (≈ 4.65 µM) |  |
| O=C(NNC(=S)Nc1ccc(F)cc1)c1cc([N+](=O)[O-])c[nH]1 | 3.12 mg/L (≈ 9.67 µM) | 331 µM | 3.12 mg/L (≈ 9.67 µM) | 0.56 mg/L (≈ 1.73 µM) | 4 | 1.56 mg/L (≈ 4.83 µM) | 3.12 mg/L (≈ 9.67 µM) | 1.56 mg/L (≈ 4.83 µM) |  |
| O=C(NNC(=S)Nc1ccccc1F)c1cc([N+](=O)[O-])c[nH]1 | 3.12 mg/L (≈ 9.67 µM) | 471 µM | 3.12 mg/L (≈ 9.67 µM) | 0.82 mg/L (≈ 2.54 µM) | 4 | 1.56 mg/L (≈ 4.83 µM) | 3.12 mg/L (≈ 9.67 µM) | 1.56 mg/L (≈ 4.83 µM) |  |
| O=C(NNC(=S)Nc1ccc(Cl)cc1)c1cc([N+](=O)[O-])c[nH]1 | 3.12 mg/L (≈ 9.2 µM) | 191 µM | 3.12 mg/L (≈ 9.2 µM) | 1.3 mg/L (≈ 3.83 µM) | 4 | 1.56 mg/L (≈ 4.59 µM) | 3.12 mg/L (≈ 9.2 µM) | 1.56 mg/L (≈ 4.59 µM) |  |
| O=C(NNC(=S)NCCc1ccccc1)c1cc([N+](=O)[O-])c[nH]1 | 3.12 mg/L (≈ 9.37 µM) | 281 µM | 3.12 mg/L (≈ 9.37 µM) | 3.9 mg/L (≈ 11.7 µM) | 4 | 1.56 mg/L (≈ 4.68 µM) | 6.25 mg/L (≈ 18.7 µM) | 3.12 mg/L (≈ 9.37 µM) |  |
| O=C(NNC(=S)NCc1ccccc1)c1cc([N+](=O)[O-])c[nH]1 | 3.12 mg/L (≈ 9.79 µM) | 397 µM | 6.25 mg/L (≈ 19.6 µM) | 7.3 mg/L (≈ 22.9 µM) | 4 | 3.12 mg/L (≈ 9.79 µM) | 6.25 mg/L (≈ 19.6 µM) | 3.12 mg/L (≈ 9.79 µM) |  |
| O=C(NNC(=S)NC1CCCCC1)c1cc([N+](=O)[O-])c[nH]1 | 3.12 mg/L (≈ 10 µM) | 204 µM | 3.12 mg/L (≈ 10 µM) | 2.8 mg/L (≈ 8.99 µM) | 4 | 1.56 mg/L (≈ 5.01 µM) | 3.12 mg/L (≈ 10 µM) | 1.56 mg/L (≈ 5.01 µM) |  |
| Cc1ccccc1NC(=S)NNC(=O)c1cc([N+](=O)[O-])c[nH]1 | 3.12 mg/L (≈ 9.79 µM) | 462 µM | 3.12 mg/L (≈ 9.79 µM) | 0.67 mg/L (≈ 2.1 µM) | 4 | 1.56 mg/L (≈ 4.88 µM) | 3.12 mg/L (≈ 9.79 µM) | 1.56 mg/L (≈ 4.88 µM) |  |
| COc1cc(NC(=S)NNC(=O)c2cc([N+](=O)[O-])c[nH]2)cc(OC)c1OC | 3.12 mg/L (≈ 7.9 µM) | 328 µM | 6.25 mg/L (≈ 15.8 µM) | 2.7 mg/L (≈ 6.83 µM) | 4 | 3.12 mg/L (≈ 7.9 µM) | 3.12 mg/L (≈ 7.9 µM) | 1.56 mg/L (≈ 3.95 µM) |  |
| Cn1cc([N+](=O)[O-])cc1C(=O)NNC(=S)NCCc1ccccc1 | 0.78 mg/L (≈ 2.25 µM) | 404 µM | 0.78 mg/L (≈ 2.25 µM) | 23 mg/L (≈ 66.2 µM) | 4 | 0.39 mg/L (≈ 1.12 µM) | 3.12 mg/L (≈ 9 µM) | 0.78 mg/L (≈ 2.25 µM) |  |
| COc1cc(NC(=S)NNC(=O)c2cc([N+](=O)[O-])cn2C)cc(OC)c1OC | 0.78 mg/L (≈ 1.91 µM) | 392 µM | 1.56 mg/L (≈ 3.81 µM) | 21.5 mg/L (≈ 52.5 µM) | 4 | 0.78 mg/L (≈ 1.91 µM) | 1.56 mg/L (≈ 3.81 µM) | 0.39 mg/L (≈ 0.953 µM) | 4 |
| C[C@@H]1[C@H](O)[C@@H](C)/C=C/C=C/C=C/C=C/C=C/C=C/C=C/[C@H](O[C@@H]2O[C@H](C)[C@@H](O)[C@H](N)[C@@H]2O)C[C@@H]2O[C@](O)(C[C@@H](O)C[C@@H](O)[C@H](O)CC[C@@H](O)C[C@@H](O)CC(=O)O[C@H]1C)C[C@H](O)[C@H]2C(=O)O [AMPHOTERICIN B] | 3.12 mg/L (≈ 3.38 µM) |  |  |  |  |  |  |  |  |
| O=C(O)c1cn(C2CC2)c2cc(N3CCNCC3)c(F)cc2c1=O [CIPROFLOXACIN] |  |  | 3.12 mg/L (≈ 9.43 µM) |  |  | 1.56 mg/L (≈ 4.71 µM) | 1.56 mg/L (≈ 4.71 µM) |  |  |
| NNC(=O)c1ccncc1 [ISONIAZID] |  |  |  | 0.4 mg/L (≈ 2.92 µM) |  |  |  |  |  |
